Reference: the supplement of paper PMC10627819
≈ marks a conversion by molar mass, not a printed value.

What was measured:
B. subtilis 168 [1] = system: B. subtilis 168
S. aureus DSM 20231 [2] = system: S. aureus DSM 20231
S. aureus Newman [3] = system: S. aureus Newman
S. pneumoniae D39V [4] = system: S. pneumoniae D39V
B. subtilis 168 [5] = experiment: fitness (endpoint OD595 vs no drug) (fraction); higher = more growth
Outline: (§1)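 Each well of a 384-well plate received 30 µl of culture at OD595 0.01, or 55 µl for S. pneumoniae. TSB, LB Lennox or CY served as media at 37 °C. OD595 was taken every 30 min for 14 h and corrected by subtracting the first reading. Fitness is the optical density at stationary-phase entry divided by the robust mean of no-drug controls, capped at 1.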

S. aureus DSM 20231 [6] = experiment: as above
Outline: as §1

S. aureus Newman [7] = experiment: as above
Outline: as §1

S. pneumoniae D39V [8] = experiment: as above
Outline: as §1

N[C@@H]1CONC1=O [Cycloserine D]
Settings	MIC [µg/mL]
B. subtilis 168 [1]	0.5 (≈ 4.9 µM)
S. aureus DSM 20231 [2]	1.5 (≈ 14.7 µM)
S. aureus Newman [3]	1.5 (≈ 14.7 µM)
S. pneumoniae D39V [4]	8.75 (≈ 85.7 µM)

Settings	fitness
B. subtilis 168 [5], 0.125 µg/mL	0.963
B. subtilis 168 [5], 0.25 µg/mL	0.948
B. subtilis 168 [5], 0.5 µg/mL	0.966
S. aureus DSM 20231 [6], 0.375 µg/mL	≥ 1
S. aureus DSM 20231 [6], 0.75 µg/mL	≥ 1
S. aureus DSM 20231 [6], 1.5 µg/mL	≥ 1
S. aureus Newman [7], 0.375 µg/mL	≥ 1
S. aureus Newman [7], 0.75 µg/mL	≥ 1
S. aureus Newman [7], 1.5 µg/mL	0.983
S. pneumoniae D39V [8], 2.188 µg/mL	0.872
S. pneumoniae D39V [8], 4.375 µg/mL	0.81
S. pneumoniae D39V [8], 8.75 µg/mL	0.533

C[C@@H](O)[C@H]1C(=O)N2C(C(=O)O)=C(SCCNC=N)C[C@H]12 [Imipenem]
Settings	MIC [µg/mL]
B. subtilis 168 [1]	0.5 (≈ 1.67 µM)
S. pneumoniae D39V [4]	0.062 (≈ 0.207 µM)

fitness
Settings	0.005 µg/mL	0.01 µg/mL	0.02 µg/mL	0.0625 µg/mL	0.125 µg/mL	0.25 µg/mL
B. subtilis 168 [5]	–	–	–	0.857	0.751	0.466
S. pneumoniae D39V [8]	0.961	0.95	0.943	–	–	–

COc1c(N2C[C@@H]3CCCN[C@@H]3C2)c(F)cc2c(=O)c(C(=O)O)cn(C3CC3)c12 [Moxifloxacin]
Settings	MIC [µg/mL]
S. aureus DSM 20231 [2]	0.033 (≈ 0.0822 µM)
S. aureus Newman [3]	0.033 (≈ 0.0822 µM)
S. pneumoniae D39V [4]	0.25 (≈ 0.623 µM)

Settings	fitness
B. subtilis 168 [5], 0.0312 µg/mL	0.0397
B. subtilis 168 [5], 0.0625 µg/mL	0.0388
B. subtilis 168 [5], 0.125 µg/mL	0.0181
B. subtilis 168 [5], 2 µg/mL	0.0291
B. subtilis 168 [5], 4 µg/mL	0.0224
B. subtilis 168 [5], 8 µg/mL	0.0114
S. aureus DSM 20231 [6], 0.0075 µg/mL	0.888
S. aureus DSM 20231 [6], 0.015 µg/mL	0.824
S. aureus DSM 20231 [6], 0.03 µg/mL	0.665
S. aureus Newman [7], 0.0075 µg/mL	0.748
S. aureus Newman [7], 0.015 µg/mL	0.642
S. aureus Newman [7], 0.03 µg/mL	0.0899
S. pneumoniae D39V [8], 0.0037 µg/mL	0.9
S. pneumoniae D39V [8], 0.0075 µg/mL	0.916
S. pneumoniae D39V [8], 0.015 µg/mL	0.862
S. pneumoniae D39V [8], 0.0312 µg/mL	0.134
S. pneumoniae D39V [8], 0.0625 µg/mL	0.088
S. pneumoniae D39V [8], 0.125 µg/mL	0.0638

O=C(N[C@H](CO)[C@H](O)c1ccc([N+](=O)[O-])cc1)C(Cl)Cl [Chloramphenicol]
Settings	MIC [µg/mL]
S. aureus DSM 20231 [2]	3.5 (≈ 10.8 µM)
S. aureus Newman [3]	3 (≈ 9.28 µM)
S. pneumoniae D39V [4]	2 (≈ 6.19 µM)

Settings	fitness
B. subtilis 168 [5], 0.5 µg/mL	0.834
B. subtilis 168 [5], 1 µg/mL	0.659
S. aureus DSM 20231 [6], 0.75 µg/mL	0.878
S. aureus DSM 20231 [6], 1.5 µg/mL	0.711
S. aureus DSM 20231 [6], 3 µg/mL	0.0899
S. aureus Newman [7], 0.75 µg/mL	0.804
S. aureus Newman [7], 1.5 µg/mL	0.514
S. aureus Newman [7], 3 µg/mL	0.126
S. pneumoniae D39V [8], 0.375 µg/mL	0.893
S. pneumoniae D39V [8], 0.75 µg/mL	0.722
S. pneumoniae D39V [8], 1.5 µg/mL	0.407

O=C1CN(/N=C/c2ccc([N+](=O)[O-])o2)C(=O)N1 [Nitrofurantoin]
Settings	MIC [µg/mL]
B. subtilis 168 [1]	16 (≈ 67.2 µM)
S. aureus DSM 20231 [2]	8.89 (≈ 37.3 µM)
S. aureus Newman [3]	10 (≈ 42 µM)
S. pneumoniae D39V [4]	16 (≈ 67.2 µM)

S. pneumoniae D39V [8]
Settings	fitness
2 µg/mL	0.941
4 µg/mL	0.888
8 µg/mL	0.724

COc1cc(Cc2cnc(N)nc2N)cc(OC)c1OC [Trimethoprim]
Settings	MIC [µg/mL]
B. subtilis 168 [1]	2.5 (≈ 8.61 µM)
S. pneumoniae D39V [4]	4 (≈ 13.8 µM)

fitness
Settings	0.125 µg/mL	0.25 µg/mL	0.5 µg/mL	1 µg/mL	2 µg/mL
B. subtilis 168 [5]	0.623	0.478	0.45	0.334	0.31
S. aureus DSM 20231 [6]	0.8	0.662	0.143	–	–
S. aureus Newman [7]	0.857	0.725	0.248	–	–
S. pneumoniae D39V [8]	–	–	0.924	0.658	0.306

O=C(O[C@@H]1Cc2c(O)cc(O)cc2O[C@@H]1c1cc(O)c(O)c(O)c1)c1cc(O)c(O)c(O)c1 [EGCG]
Settings	MIC [µg/mL]
B. subtilis 168 [1]	50 (≈ 109 µM)
S. aureus DSM 20231 [2]	50 (≈ 109 µM)
S. aureus Newman [3]	50 (≈ 109 µM)
S. pneumoniae D39V [4]	400 (≈ 873 µM)

fitness
Settings	B. subtilis 168 [5]	S. aureus DSM 20231 [6]	S. aureus Newman [7]	S. pneumoniae D39V [8]
6.25 µg/mL	0.91	–	–	–
12.5 µg/mL	0.709	0.841	0.778	0.946
25 µg/mL	0.34	0.776	0.714	0.964
50 µg/mL	–	0.795	0.671	0.987

CC(=O)O[C@H]1C[C@@]2(C)[C@@H](C[C@@H](O)[C@H]3[C@@]4(C)CC[C@@H](O)[C@@H](C)[C@@H]4CC[C@@]32C)/C1=C(\CCC=C(C)C)C(=O)O [Fusidic acid]
Settings	MIC [µg/mL]
B. subtilis 168 [1]	0.5 (≈ 0.968 µM)
S. aureus Newman [3]	0.139 (≈ 0.269 µM)
S. pneumoniae D39V [4]	4 (≈ 7.74 µM)

CCC[C@@H]1C[C@@H](C(=O)N[C@@H]([C@H]2O[C@H](SC)[C@H](O)[C@@H](O)[C@H]2O)[C@H](C)Cl)N(C)C1 [Clindamycin]
Settings	MIC [µg/mL]
B. subtilis 168 [1]	1 (≈ 2.35 µM)
S. aureus DSM 20231 [2]	0.125 (≈ 0.294 µM)
S. aureus Newman [3]	0.125 (≈ 0.294 µM)
S. pneumoniae D39V [4]	0.125 (≈ 0.294 µM)

Settings	fitness
B. subtilis 168 [5], 0.0625 µg/mL	0.596
B. subtilis 168 [5], 0.125 µg/mL	0.432
B. subtilis 168 [5], 0.25 µg/mL	0.393
S. aureus DSM 20231 [6], 0.0312 µg/mL	0.747
S. aureus DSM 20231 [6], 0.0625 µg/mL	0.246
S. aureus DSM 20231 [6], 0.125 µg/mL	0.0653
S. aureus Newman [7], 0.0312 µg/mL	0.775
S. aureus Newman [7], 0.0625 µg/mL	0.432
S. aureus Newman [7], 0.125 µg/mL	0.108
S. pneumoniae D39V [8], 0.015 µg/mL	0.869
S. pneumoniae D39V [8], 0.03 µg/mL	0.682
S. pneumoniae D39V [8], 0.06 µg/mL	0.456

CN[C@H](CC(C)C)C(=O)N[C@H]1C(=O)N[C@@H](CC(N)=O)C(=O)N[C@H]2C(=O)N[C@H]3C(=O)N[C@H](C(=O)N[C@H](C(=O)O)c4cc(O)cc(O)c4-c4cc3ccc4O)[C@H](O)c3ccc(c(Cl)c3)Oc3cc2cc(c3O[C@@H]2O[C@H](CO)[C@@H](O)[C@H](O)[C@H]2O[C@H]2C[C@](C)(N)[C@H](O)[C@H](C)O2)Oc2ccc(cc2Cl)[C@H]1O [Vancomycin]
Settings	MIC [µg/mL]
B. subtilis 168 [1]	0.375 (≈ 0.259 µM)
S. pneumoniae D39V [4]	0.3 (≈ 0.207 µM)

Settings	fitness
B. subtilis 168 [5], 0.0468 µg/mL	0.997
B. subtilis 168 [5], 0.0935 µg/mL	0.924
B. subtilis 168 [5], 0.0938 µg/mL	0.853
B. subtilis 168 [5], 0.187 µg/mL	0.0481
B. subtilis 168 [5], 0.1875 µg/mL	0.169
B. subtilis 168 [5], 0.375 µg/mL	0.0404
S. aureus DSM 20231 [6], 0.1875 µg/mL	≥ 1
S. aureus DSM 20231 [6], 0.375 µg/mL	≥ 1
S. aureus DSM 20231 [6], 0.5 µg/mL	0.981
S. aureus DSM 20231 [6], 0.75 µg/mL	≥ 1
S. aureus DSM 20231 [6], 1 µg/mL	0.977
S. aureus DSM 20231 [6], 2 µg/mL	0.992
S. aureus Newman [7], 0.1875 µg/mL	≥ 1
S. aureus Newman [7], 0.375 µg/mL	0.99
S. aureus Newman [7], 0.75 µg/mL	0.999
S. pneumoniae D39V [8], 0.125 µg/mL	0.97
S. pneumoniae D39V [8], 0.25 µg/mL	0.489
S. pneumoniae D39V [8], 0.5 µg/mL	0.159

CCCCCCCCCC(=O)N[C@H]1[C@H](Oc2c3cc4cc2Oc2ccc(cc2Cl)[C@@H](O[C@@H]2O[C@H](CO)[C@@H](O)[C@H](O)[C@H]2NC(C)=O)[C@@H]2NC(=O)[C@H](NC(=O)[C@@H]4NC(=O)[C@H]4NC(=O)[C@@H](Cc5ccc(c(Cl)c5)O3)NC(=O)[C@H](N)c3ccc(O)c(c3)Oc3cc(O)cc4c3)c3ccc(O)c(c3)-c3c(O[C@H]4O[C@H](CO)[C@@H](O)[C@H](O)[C@@H]4O)cc(O)cc3[C@@H](C(=O)O)NC2=O)O[C@H](CO)[C@@H](O)[C@@H]1O [Teicoplanin]
main component drawn
Settings	MIC [µg/mL]
S. aureus DSM 20231 [2]	0.7 (≈ 0.372 µM)
S. aureus Newman [3]	0.7 (≈ 0.372 µM)
S. pneumoniae D39V [4]	0.062 (≈ 0.033 µM)

fitness, main component drawn
Settings	0.1562 µg/mL	0.3125 µg/mL	0.625 µg/mL	1.25 µg/mL
S. aureus DSM 20231 [6]	≥ 1	≥ 1	≥ 1	≥ 1
S. aureus Newman [7]	≥ 1	≥ 1	≥ 1	–
